Test results as given in US20050238727A1, “Coadministration of radiation, efaproxiral sodium, and supplemental oxygen for the treatment of cancer” (priority 2004, published 2005).

Tests used:
Format in all cases: in vivo, human
brain metastases [1] = experiment: Survival of patients with brain metastases given efaproxiral sodium + WBRT + supplemental oxygen (controlled study RT-009)
Protocol: Patients with brain metastases were administered efaproxiral sodium in a total dose of 0-100 mg/kg per day based on the dosing guidelines detailed above. In general, efaproxiral sodium is administered by intravenous infusion through a central venous access device over 30 minutes at a dose of 75 or 100 mg/kg daily with concurrent supplemental oxygen. Oxygen must be administered at 4 L/min via nasal cannula or facemask beginning 5 minutes prior to initiation of infusion, during infusion and WBRT, and for at least 15 minutes after completion of daily WBRT. Efaproxiral sodium is administered every day of a fractionated course of WBRT. Except when contraindicated, WBRT must be administered within 30 minutes of the end of the efaproxiral sodium infusion. The patients were given the drug in one dose. Efaproxiral sodium was administered via central venous access with flow rate controlled by volumetric pump over a 30-45 minute interval with end-infusion no longer than 30 minutes prior to each radiation dose of a 10-day course of WBRT. Efaproxiral sodium was formulated as a sterile solution for injection and was supplied in single-use glass bottles containing 10 g efaproxiral sodium in 500 mL of 0.225% NaCl at a concentration of 20 mg/mL. Efaproxiral sodium was administered during the 10-day course of WBRT, for a maximum of 10 doses. A control group received radiation and supplemental oxygen only. Supplemental oxygen is administered at about 4 L/min via nasal cannula beginning about 5 minutes prior to initiation of infusion, during infusion and WBRT, and for at least about 15 minutes after completion of daily WBRT. If the desired SpO2 of greater than or equal to 90% while breathing room air is not achieved, supplemental oxygen is to be continued and increased to a flow of 6-8 L/min, if necessary, until the SpO2 while breathing room air is stabilized at greater than or equal to 90%. Plasma and red blood cell (RBC) drug concentration were assayed on 2 days during the course of efaproxiral sodium administration: WBRT day 1 (end-infusion) and on 1 single day between WBRT days 6 and 10 (pre-infusion and end-infusion assays). Regression analysis was used to explore the relationship between trough and peak concentrations and continuous clinical covariates (eg, age, serum albumin, hematocrit, serum creatinine, etc). […] A dose of efaproxiral sodium was considered predicatably therapeutic if it achieved a sufficient, RBC concentration (>483 μg/ml), and corresponded to a predicted p50 shift of 10 mmHg. One measurement of efficacy is the survival in the total patient population. For eligible patients, the observed mean survival time for the control group was 4.37 months as compared to 5.39 months for the efaproxiral sodium treated group.

brain metastases [2] = experiment: Radiographic response of brain metastases (contrast enhanced MRI or CT, blinded central review)
Excerpt: Radiographic progression is defined by radiographic criteria only, based on a blinded central review. Determination of radiographic tumor progression in the brain was based on contrast enhanced MRI or CT scans taken at screening and compared to follow-up scans taken 1 month after the end of WBRT, 3 months after the end of WBRT, and every 3 months thereafter until death. Maximum bi-dimensional measurements (x=transverse, y=antero-posterior) were used to compute the bi-dimensional product and for determination of response and radiographic progression. Time to radiographic tumor progression in the brain was reported by means of Kaplan-Meier estimates. Gray's test (Gray R. A class of K-sample tests for comparing the cumulative incidence of a competing risk. Annals of Statistics […];16:1141-1154) was used to compare cumulative incidence between treatment and control groups. Potential competing risks for radiographic progression in the brain included death without progression and loss to follow-up. The date of tumor progression is defined as the date of radiographic documentation that any treated lesion in the brain is enlarged by more than 25% in the bi-dimensional product. The reference to “any treated lesion” mans that the lesion was present prior to RT.

[3] = Resaturation time / supplemental oxygen requirement after efaproxiral sodium plus WBRT; settings: majority of doses; patients with brain metastases from breast cancer
Protocol: Depending upon an individual patient's resaturation time (time required to recover to a stable≧90% SpO2 on room air) following efaproxiral sodium plus WBRT, supplemental oxygen use may be required for as little as 30 minutes to more than 4 hours. […] During this period of decreased oxygen saturation, patients require continuous SpO2 monitoring. If the desired SpO2 of≧90% while breathing room air is not achieved, supplemental oxygen is to be continued and increased to a flow of 6-8 L/min, if necessary, until the SpO2 while breathing room air is stabilized at≧90%.

[4] = Treatment-emergent adverse events in the controlled study
Protocol: Patients with brain metastases were administered efaproxiral sodium in a total dose of 0-100 mg/kg per day based on the dosing guidelines detailed above. In general, efaproxiral sodium is administered by intravenous infusion through a central venous access device over 30 minutes at a dose of 75 or 100 mg/kg daily with concurrent supplemental oxygen. Oxygen must be administered at 4 L/min via nasal cannula or facemask beginning 5 minutes prior to initiation of infusion, during infusion and WBRT, and for at least 15 minutes after completion of daily WBRT. Efaproxiral sodium is administered every day of a fractionated course of WBRT. Except when contraindicated, WBRT must be administered within 30 minutes of the end of the efaproxiral sodium infusion.
The patients were given the drug in one dose. Efaproxiral sodium was administered via central venous access with flow rate controlled by volumetric pump over a 30-45 minute interval with end-infusion no longer than 30 minutes prior to each radiation dose of a 10-day course of WBRT. Efaproxiral sodium was formulated as a sterile solution for injection and was supplied in single-use glass bottles containing 10 g efaproxiral sodium in 500 mL of 0.225% NaCl at a concentration of 20 mg/mL. Efaproxiral sodium was administered during the 10-day course of WBRT, for a maximum of 10 doses. A control group received radiation and supplemental oxygen only.
The majority of treatment-emergent adverse events were Grade 1 or 2 in severity, resolved spontaneously or within the duration of the study, and responded well to concomitant treatment with antiemetics for nausea/vomiting, nonsteroidal anti-inflammatory drugs for headache, supplemental oxygen for hypoxemia. […] Muscle weakness and dyspnea (reported in 3% of patients ) were the most commonly reported Grade 3 adverse events in Control patients and both events were reported as a Grade 4 event in 1 patient each. The most commonly reported Grade 4 adverse event in both treatment and control groups was disease progression (reported in 6% of both groups).

[5] = Quality of life: Karnofsky Performance Status (KPS); settings: for patients with stable or improving KPS scores: all randomized patients, N = 271
Protocol: (§1) Quality of life was determined by means of the Spitzer Questionnaire (SQ) and Kamofsky Performance Status (KPS) assessment. The tests were performed at baseline, at WBRT day 10, and at all routine follow-up visits. A sustained drop in the KPS score to less than 60 was defined as a significant drop. The 5 questions comprising the Spitzer Questionnaire were weighted evenly. For each evaluation with at least 3 out of 5 questions answered, an average score was computed for each patient. Questionnaires with fewer than 3 questions answered were treated as missing data. The protocol specified a sustained drop in the Spitzer Questionnaire score of 2 points constituted a significant drop.

[6] = Plasma and red blood cell (RBC) drug concentration during efaproxiral sodium administration
Protocol: Plasma and red blood cell (RBC) drug concentration were assayed on 2 days during the course of efaproxiral sodium administration: WBRT day 1 (end-infusion) and on 1 single day between WBRT days 6 and 10 (pre-infusion and end-infusion assays). Regression analysis was used to explore the relationship between trough and peak concentrations and continuous clinical covariates (eg, age, serum albumin, hematocrit, serum creatinine, etc). […] A dose of efaproxiral sodium was considered predicatably therapeutic if it achieved a sufficient, RBC concentration (>483 μg/ml), and corresponded to a predicted p50 shift of 10 mmHg.

[7] = Quality of life: Spitzer Questionnaire (SQ); settings: all randomized patients, N = 271
Protocol: as §1

Cc1cc(C)cc(NC(=O)Cc2ccc(OC(C)(C)C(=O)O)cc2)c1 [efaproxiral sodium, 2-[4-(((3,5-dimethylanilino)carbonyl)methyl)phenoxy]-2-methylpropionic acid]
MST (median survival time) (brain metastases [1]; All patients, <7 efaproxiral sodium doses): 2.96 (53) | MST (median survival time) (brain metastases [1]; All patients, ≧7 efaproxiral sodium doses, <7 successful (RBC >483 μg/ml)): 4.93 (118) | MST (median survival time) (brain metastases [1]; All patients, ≧7 efaproxiral sodium doses, ≧7 successful (RBC >483 μg/ml), p 0.001 vs Control): 6.90 (100) 0.001 | MST (median survival time) (brain metastases [1]; Breast patients, <7 efaproxiral sodium doses): 3.52 (13) | MST (median survival time) (brain metastases [1]; Breast patients, ≧7 efaproxiral sodium doses, <7 successful): 7.33 (22) | MST (median survival time) (brain metastases [1]; Breast patients, ≧7 efaproxiral sodium doses, ≧7 successful, p 0.0002 vs Control): 25.72 (25) 0.0002 | MST (median survival time) (brain metastases [1]; NSCLC patients, <7 efaproxiral sodium doses): 2.71 (30) | MST (median survival time) (brain metastases [1]; NSCLC patients, ≧7 efaproxiral sodium doses, <7 successful): 4.73 (65) | MST (median survival time) (brain metastases [1]; NSCLC patients, ≧7 efaproxiral sodium doses, ≧7 successful, p 0.0011 vs Control): 6.83 (53) 0.0011 | observed mean survival time (brain metastases [1]; eligible patients, control group 4.37 months): 5.39 months | HR, survival distribution function, treatment versus control (brain metastases [1]; patients with breast as site of primary, p=0.0061): 0.552 | estimated increase in radiographic response rate compared to Control (brain metastases [2]; all randomized patients, 95% CI −0.4%-16.3%, p=0.0609): 7.9% | treatment effect for predicting response (logistic multiple regression) (brain metastases [2]; breast primary patients, p=0.0209): statistically significant | supplemental oxygen required after completion of WBRT [3]: one | severity of the majority of treatment-emergent adverse events ([4]; controlled study): Grade 1 or 2 | Grade 4 hypoxemia ([4]; efaproxiral sodium-treated patients): no Grade 4 hypoxemia was reported | Grade 3 hypoxemia, patients reporting ([4]; efaproxiral sodium-treated patients, most commonly reported Grade 3 adverse event): 11% | Grade 4 disease progression, patients reporting ([4]; most commonly reported Grade 4 adverse event, same in control group): 6% | patients with stable or improving KPS scores ([5]; 1 month): 119 (44) n (%) | patients with stable or improving KPS scores ([5]; 3 months): 64 (24) n (%) | patients with stable or improving KPS scores ([5]; 6 months): 49 (18) n (%) | patients with stable or improving KPS scores ([5]; 12 months): 19 (7) n (%) | distribution of KPS score categories between treatment groups ([5]; breast primary patients, 6 months and 1 year (p=0.0046 and p=0.0070)): statistically significant difference | drug accumulation ([6]; WBRT week 2 preinfusion concentrations in RBCs): No clinically relevant drug accumulation occurred | predicted p50 shift ([6]; at RBC concentration >483 μg/ml): 10 mmHg | change of concentration in RBCs with dose ([6]; patients dosed at 75 or 100 mg/kg): proportional increase | patients with stable or improving SQ scores ([7]; 1 month): 115 (42) n (%) | patients with stable or improving SQ scores ([7]; 3 months): 62 (23) n (%) | patients with stable or improving SQ scores ([7]; 6 months): 43 (16) n (%) | patients with stable or improving SQ scores ([7]; 12 months): 24 (9) n (%)
